Test results taken from patent US9845512B2, “Screening assay employing Dex and GDF8” (RIGEL PHARMACEUTICALS, INC., priority 2010, dated 2017).

System: endogenous MuRF1
Test: Endogenous MuRF1 expression in HepG2 cells by Taqman RT-PCR
Assay type: cell-based, human
Experimental: Cultured HepG2 cells were exposed to 1 μM dexamethasone, 10 μM dexamethasone, 100 ng/ml GDF8, 100 ng/ml TGFβ1, and 10 μM dexamethasone+100 ng/ml GDF8, and expression of endogenous MuRF1 was evaluated by RT-PCR using Taqman RT-PCR assay. […] 10 μM dexamethasone induced expression of endogenous MuRF1 2.5× over the no treatment control, and 100 ng/ml GDF8 induced expression of endogenous MuRF1 1.8× over the no treatment control.
MuRF1 induction is observable at four hours of treatment, as compared to controls.

| Molecule | induction of endogenous MuRF1 expression over the no treatment control (10 μM dexamethasone alone) [×] | induction of endogenous MuRF1 expression over the no treatment control (100 ng/ml GDF8 alone) [×] |
| --- | --- | --- |
| C[C@@H]1C[C@H]2[C@@H]3CCC4=CC(=O)C=C[C@]4(C)[C@@]3(F)[C@@H](O)C[C@]2(C)[C@@]1(O)C(=O)CO [dexamethasone] | 2.5 | – |
| GDF8: secreted TGFβ protein family member that inhibits muscle differentiation and growth; ligand for the myostatin receptor | – | 1.8 |
